The source of these data is patent US11999745B2, “Pharmaceutical compounds” (Heptares Therapeutics Limited, priority 2020, dated 2024).

Assay type in all cases: cell-based
Test [1] addresses T1, human muscarinic M3 receptor (Homo sapiens, UniProt P20309).
T1 construct: expressed in transfected cells
As to the kind of experiment: Alphascreen Surefire phospho-ERK1/2 functional assay, M3. The note with it: for Emax: CHO cells stably expressing human M3, read-out: % Emax cf. ACh, M3. As to the method:
(§1) ERK1/2 phosphorylation is a downstream consequence of both Gq/11 and Gi/o protein coupled receptor activation, making it highly suitable for the assessment of M1, M3 (Gq/11 coupled) and M2, M4 receptors (Gi/o coupled), rather than using different assay formats for different receptor subtypes. CHO cells stably expressing the human muscarinic M1, M2, M3 or M4 receptor were plated (25K/well) onto 96-well tissue culture plates in MEM-alpha+10% dialysed FBS. Once adhered, cells were serum-starved overnight. Agonist stimulation was performed by the addition of 5 μL agonist to the cells for 5 min (37° C.). Media was removed and 50 μL of lysis buffer added.
(Alpha assays give light when donor and acceptor beads are brought close together.)

For test [2], the target named is T2, human muscarinic M4 receptor (Homo sapiens, UniProt P08173).
T2 construct: expressed in transfected cells
T2 sequence (P08173 1-479): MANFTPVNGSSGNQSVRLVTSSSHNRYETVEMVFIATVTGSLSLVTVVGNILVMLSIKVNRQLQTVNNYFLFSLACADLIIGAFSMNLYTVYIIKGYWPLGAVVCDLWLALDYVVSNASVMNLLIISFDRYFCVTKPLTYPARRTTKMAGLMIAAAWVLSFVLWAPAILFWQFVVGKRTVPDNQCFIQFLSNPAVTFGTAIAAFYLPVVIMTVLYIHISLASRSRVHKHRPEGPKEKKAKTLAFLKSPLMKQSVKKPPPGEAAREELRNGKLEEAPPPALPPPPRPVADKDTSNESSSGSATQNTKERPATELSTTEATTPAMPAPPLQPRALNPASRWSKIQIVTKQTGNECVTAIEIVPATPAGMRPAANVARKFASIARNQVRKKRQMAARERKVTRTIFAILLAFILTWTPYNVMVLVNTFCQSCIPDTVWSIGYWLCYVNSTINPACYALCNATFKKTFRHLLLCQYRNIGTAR
Kind of test: Alphascreen Surefire phospho-ERK1/2 functional assay, M4. The note with it: for Emax: CHO cells stably expressing human M4, read-out: % Emax cf. ACh, M4. As to the method: as §1

In test [3] the target is T3, human muscarinic M2 receptor (Homo sapiens, UniProt P08172).
T3 construct: expressed in transfected cells
T3 sequence (P08172 1-466): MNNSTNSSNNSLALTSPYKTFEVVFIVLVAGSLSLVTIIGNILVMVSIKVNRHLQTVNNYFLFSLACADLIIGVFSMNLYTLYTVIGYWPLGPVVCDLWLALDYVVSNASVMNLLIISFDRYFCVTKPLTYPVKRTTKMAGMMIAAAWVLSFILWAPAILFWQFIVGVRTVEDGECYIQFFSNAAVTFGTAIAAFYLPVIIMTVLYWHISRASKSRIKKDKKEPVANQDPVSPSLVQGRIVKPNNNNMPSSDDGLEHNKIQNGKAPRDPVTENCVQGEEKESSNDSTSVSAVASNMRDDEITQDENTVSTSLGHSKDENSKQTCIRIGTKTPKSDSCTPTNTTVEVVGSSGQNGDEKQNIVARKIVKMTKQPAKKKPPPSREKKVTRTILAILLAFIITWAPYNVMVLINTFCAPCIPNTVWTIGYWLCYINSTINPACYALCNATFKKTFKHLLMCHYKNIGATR
As to the kind of experiment: Alphascreen Surefire phospho-ERK1/2 functional assay, M2. As to the method: as §1

The target of test [4] is T4, human muscarinic M1 receptor (Homo sapiens, UniProt P11229).
T4 construct: expressed in transfected cells
T4 sequence (P11229 1-460): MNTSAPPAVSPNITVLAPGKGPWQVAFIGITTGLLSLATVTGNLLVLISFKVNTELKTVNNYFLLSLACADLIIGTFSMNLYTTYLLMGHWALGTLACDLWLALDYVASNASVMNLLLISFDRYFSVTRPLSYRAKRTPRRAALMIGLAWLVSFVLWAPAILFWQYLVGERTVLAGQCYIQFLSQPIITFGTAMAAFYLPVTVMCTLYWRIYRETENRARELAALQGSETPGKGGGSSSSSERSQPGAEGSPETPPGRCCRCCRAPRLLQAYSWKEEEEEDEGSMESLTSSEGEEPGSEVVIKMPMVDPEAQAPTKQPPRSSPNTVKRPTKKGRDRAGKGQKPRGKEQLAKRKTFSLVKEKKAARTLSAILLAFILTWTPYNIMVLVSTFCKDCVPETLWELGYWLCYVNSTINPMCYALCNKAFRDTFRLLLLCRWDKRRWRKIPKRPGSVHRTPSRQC
As to the kind of experiment: Alphascreen Surefire phospho-ERK1/2 functional assay, M1. As to conditions: CHO cells stably expressing human M1, phospho-ERK1/2. As to the method:
as §1

T1 sequence (P20309 whole entry): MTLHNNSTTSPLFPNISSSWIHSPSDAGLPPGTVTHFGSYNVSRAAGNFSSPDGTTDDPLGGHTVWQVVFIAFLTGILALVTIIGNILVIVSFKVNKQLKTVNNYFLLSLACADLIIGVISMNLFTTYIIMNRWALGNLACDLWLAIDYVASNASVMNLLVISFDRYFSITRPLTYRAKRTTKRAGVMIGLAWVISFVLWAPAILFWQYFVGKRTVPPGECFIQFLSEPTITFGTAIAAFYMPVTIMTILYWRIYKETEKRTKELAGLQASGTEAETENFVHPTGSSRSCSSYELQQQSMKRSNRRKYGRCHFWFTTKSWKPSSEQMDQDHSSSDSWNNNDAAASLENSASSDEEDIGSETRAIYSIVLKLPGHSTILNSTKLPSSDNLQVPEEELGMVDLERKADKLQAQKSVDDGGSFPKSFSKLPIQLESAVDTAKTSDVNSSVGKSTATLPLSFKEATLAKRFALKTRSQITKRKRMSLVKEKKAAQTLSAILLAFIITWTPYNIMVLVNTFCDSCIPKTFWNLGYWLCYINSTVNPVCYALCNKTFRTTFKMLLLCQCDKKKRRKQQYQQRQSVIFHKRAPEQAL

The Emax is the maximal effect, on the per cent scale that the assay sets. As for `CC(=O)OCC[N+](C)(C)C` [Acetylcholine, reference compound], the results for the maximal response (Emax) in test [1] and in test [2] were 102% and 108%, respectively.
Consider `CC(C)(C)NC(=O)C1CCN([C@H]2C[C@H]3CC[C@@H](C2)N3c2nc(C(F)(F)F)no2)CC1.Cl` [Example 1-1, N-(tert-butyl)-1-((1R,3r,5S)-8-(3-(trifluoromethyl)-1,2,4-oxadiazol-5-yl)-8-azabicyclo[3.2.1]octan-3-yl)piperidine-4-carboxamide hydrochloride], for which the Emax in test [1] was 3%; in test [3] (CHO cells stably expressing human M2, read-out: % Emax cf. ACh, M2), 7%; in test [2], 32%; in test [4] (read-out: % Emax cf. ACh, M1), 92%. In addition, the EC50 in test [1] (CHO cells stably expressing human M3, read-out: pEC50 M3 (converted)) was above 20 µM; in test [3] (CHO cells stably expressing human M2, read-out: pEC50 M2 (converted)), above 20 µM; in test [2] (CHO cells stably expressing human M4, read-out: pEC50 M4 (converted)), 0.12 µM. Besides, the “pEC50 M1” value in test [4] turned out to be 7.17.
